{"source": "patent US20130317054A1", "about": "“NEURONAL NICOTINIC AGONIST AND METHODS OF USE” (ABBVIE INC., priority 2012, published 2013)", "key": {"[1]": {"test_system": "clinically stable subjects with schizophrenia", "assay": "Phase 2a Clinical Study A: Positive and Negative Syndrome Scale (PANSS)", "assay_type": "in vivo, human", "conditions": "ITT or nonsmoker groups, throughout the study", "excerpt": "(§1) A Phase 2a proof-of-concept (POC) study in clinically stable subjects with schizophrenia who were clinically stable and received stable doses of atypical antipsychotic therapy. The study was a Phase 2, multi-center, randomized, double-blind, placebo-controlled, parallel group study designed to evaluate the safety and efficacy of doses of (4s)-4-(5-phenyl-1,3,4-thiadiazol-2-yloxy)-1-azatricyclo[3.3.1.1^3,7]decane (Compound A) in clinically stable male and female subjects (ages 20 to 55, inclusive) with a Diagnostic and Statistical Manual of Mental Disorders—Fourth Edition, Text Revision (DSM-IV-TR) diagnosis of schizophrenia. […] The criteria for clinical stability was determined by a combination of retrospective data (over the 4 months prior to the start of Screening, which will be supported by clinical records, patient, identified responsible contact person, and physician interviews), and prospective data assessed during the Prospective Stabilization Period of 28 to 42 days duration. […]\n(§2) The primary endpoint was the MCCB composite score, and the primary endpoint analysis was the change on the MCCB composite score from baseline to endpoint versus placebo. Other secondary measures included the MCCB domains, the NSA-16, the CANTAB cognition battery (measured at different time points from the MCCB), and the UPSA-2. […]"}, "[2]": {"test_system": "clinically stable subjects with schizophrenia", "assay": "Phase 2a Clinical Study A: MATRICS Consensus Cognitive Battery (MCCB)", "assay_type": "in vivo, human", "conditions": "for change from baseline to Week 12 in MCCB composite score (LS mean): ITT analysis, 12 weeks; for MCCB composite LS mean change from baseline to Week 12: subset of nonsmokers", "excerpt": "(§3) A Phase 2a proof-of-concept (POC) study in clinically stable subjects with schizophrenia who were clinically stable and received stable doses of atypical antipsychotic therapy. The study was a Phase 2, multi-center, randomized, double-blind, placebo-controlled, parallel group study designed to evaluate the safety and efficacy of doses of (4s)-4-(5-phenyl-1,3,4-thiadiazol-2-yloxy)-1-azatricyclo[3.3.1.1^3,7]decane (Compound A) in clinically stable male and female subjects (ages 20 to 55, inclusive) with a Diagnostic and Statistical Manual of Mental Disorders—Fourth Edition, Text Revision (DSM-IV-TR) diagnosis of schizophrenia. Psychiatric diagnoses were confirmed using the Mini-International Neuropsychiatric Interview (MINI) version 6.0.0. The criteria for clinical stability was determined by a combination of retrospective data (over the 4 months prior to the start of Screening, which will be supported by clinical records, patient, identified responsible contact person, and physician interviews), and prospective data assessed during the Prospective Stabilization Period of 28 to 42 days duration.\n(§4) The study was a Phase 2, multi-center, randomized, double-blind, placebo-controlled, parallel group study designed to evaluate the safety and efficacy of doses of (4s)-4-(5-phenyl-1,3,4-thiadiazol-2-yloxy)-1-azatricyclo[3.3.1.1^3,7]decane, which is also recognized as Compound A, in treating cognitive deficits in subjects with schizophrenia who were clinically stable and receiving one or two atypical antipsychotic medications. Study drug was administered orally.\n(§5) The study consisted of a screening period of at least 28 and up to 42 days, a 84-day outpatient treatment period, a 14-day post-treatment period, and a post-treatment follow-up period. The screening period consisted of three visits: Screening Visit 1, Screening Visit 2, and Day −1. Upon completion of Day −1 procedures, eligible subjects were randomized through an Interactive Voice Response/Interactive Web-Based (IVR/IWB) system. Subjects were randomized in an equal ratio to one of three treatment groups (placebo, 10 mg Compound A, or 25 mg Compound A).\n(§6) Subjects were randomized in a 1:1:1 ratio with placebo, 10 mg QD Compound A, of 25 mg Compound A. Each subject was instructed to take study drug once-daily in the morning for 12 weeks. Each daily dose was preferably taken with food. The subject and investigator were blinded to the treatment assignment throughout the study. The treatment assignments for the study subjects are shown below in Table 1.\n(§7) The primary endpoint was the MCCB composite score, and the primary endpoint analysis was the change on the MCCB composite score from baseline to endpoint versus placebo. Other secondary measures included the MCCB domains, the NSA-16, the CANTAB cognition battery (measured at different time points from the MCCB), and the UPSA-2. The Positive and Negative Syndrome Scale (PANSS) was included to document stability in schizophrenia symptomatology.\nThe MCCB was developed by a consortium of academic, industry, the Food and Drug Administration (FDA) and National Institute of Mental Health (NIMH) members called Measurement and Treatment Research to Improve Cognition in Schizophrenia (MATRICS). The battery was established in a multiple phase process that involved experts identifying cognitive tests in the literature that had shown deficits in schizophrenia, use of factor analysis to identify key domains of cognitive deficits in schizophrenia, and then empirically identifying the best tests for each domain based on reliability, validity and feasibility for use in clinical trials. The FDA has endorsed the MCCB as an appropriate outcome measure for Phase 3 CDS trials. […]"}, "[3]": {"test_system": "clinically stable subjects with schizophrenia", "assay": "Phase 2a Clinical Study A: UCSD Performance-Based Skills Assessment-2 (UPSA-2)", "assay_type": "in vivo, human", "conditions": "for UPSA-2 change from baseline score: placebo 2.6, not statistically significant", "excerpt": "as §3, §4, §5, §6, §7\nThe UCSD Performance-Based Skills Assessment-2 (UPSA-2) is a role-play test designed for subjects with schizophrenia to evaluate cognitive functional capacity in six selected domains of basic living skills. These areas include Organization/Planning, Financial Skills, Communication, Transportation, Household Management, and Medication Management. […] Scores were obtained for each subtest, and the total score was the sum of these subtests. […] The UPSA-2 required an average of 30 minutes to administer. The UPSA-2 was administered in on Days 14, 28, 56, 84 and 98."}, "[4]": {"test_system": "clinically stable subjects with schizophrenia", "assay": "Phase 2a Clinical Study A: CANTAB cognition battery", "assay_type": "in vivo, human", "conditions": "taken at different time points from the MCCB", "excerpt": "as §1, §2"}, "[5]": {"test_system": "clinically stable subjects with schizophrenia", "assay": "Phase 2a Clinical Study A: NSA-16 (negative symptoms)", "assay_type": "in vivo, human", "excerpt": "as §1, §2"}, "[6]": {"test_system": "clinically stable subjects with schizophrenia", "assay": "Phase 2a Clinical Study A: disposition of subjects and tolerability", "assay_type": "in vivo, human", "conditions": "for Primary reason for discontinuation: Adverse event: percentages based on treated subjects", "excerpt": "as §3, §4, §5, §6\nSubjects completed 2 visits during the screening period. […]"}, "[7]": {"conditions": "in vivo; cited from earlier work"}, "[8]": {"test_system": "patients with schizophrenia", "conditions": "cited from earlier work"}, "[9]": {"test_system": "patients with schizophrenia", "conditions": "cigarettes, sprays, patch; cited from earlier work"}, "[10]": {"conditions": "subset of smoking subjects, both dose groups (10 mg, 25 mg)"}, "[11]": {"conditions": "nonsmokers, dose group not stated"}}}
{"smiles": "c1ccc(-c2nnc(O[C@@H]3C4CC5C[C@H]3C[N@](C5)C4)s2)cc1", "note": "[Compound A, (4s)-4-(5-phenyl-1,3,4-thiadiazol-2-yloxy)-1-azatricyclo[3.3.1.1^3,7]decane]", "values": [{"measurement": "changes in the PANSS scores", "setting": "[1]", "value": "no significant changes"}, {"measurement": "change from baseline to Week 12 in MCCB composite score (LS mean)", "setting": "[2]; 10 mg QD oral, P=0.088 versus placebo (LS mean +0.50)", "value": "+1.79"}, {"measurement": "change from baseline to Week 12 in MCCB composite score (LS mean)", "setting": "[2]; 25 mg QD oral, P=0.067 versus placebo (LS mean +0.50)", "value": "+2.02"}, {"measurement": "effect on cognition in subjects with schizophrenia (summary)", "setting": "[2]; driven by verbal learning, working memory and attention, consequence of the effect in nonsmoking subjects", "value": "procognitive effect"}, {"measurement": "MCCB social cognition domain, mean values across treatment groups", "setting": "[2]; nonsmokers, 10 mg, 25 mg and placebo", "value": "similar"}, {"measurement": "MCCB all other domains with the exception of reasoning and problem solving, effect versus placebo", "setting": "[2]; nonsmokers, active treatment groups, monotonic dose relationship", "value": "magnitude of effect was greater"}, {"measurement": "MCCB composite LS mean change from baseline to Week 12", "setting": "[2]; 10 mg, P=0.021 compared to placebo (−0.7)", "value": "+2.1"}, {"measurement": "MCCB composite LS mean change from baseline to Week 12", "setting": "[2]; 25 mg, P=0.001 compared to placebo (−0.7)", "value": "+4.5"}, {"measurement": "change from baseline scores on the MCCB composite and domain scores", "setting": "[2]; [10]", "value": "markedly similar to placebo"}, {"measurement": "UPSA-2 composite score", "setting": "[3]; ITT, either dose group (10 mg, 25 mg)", "value": "No significance"}, {"measurement": "UPSA-2 change from baseline score", "setting": "[3]; nonsmokers, 10 mg", "value": 1.4}, {"measurement": "UPSA-2 change from baseline score", "setting": "[3]; nonsmokers, 25 mg", "value": 3.9}, {"measurement": "UPSA-2 effect size (Cohen's d) based on the raw data", "setting": "[3]; [11]", "value": 0.13}, {"measurement": "UPSA-2 model-based effect size", "setting": "[3]; [11]", "value": 0.23}, {"measurement": "change from baseline scores on the UPSA-2", "setting": "[3]; [10]", "value": "markedly similar to placebo"}, {"measurement": "Results of the CANTAB battery", "setting": "[4]", "value": "markedly similar to those of the MCCB"}, {"measurement": "effect on negative symptoms of schizophrenia (summary)", "setting": "[5]; human, in vivo", "value": "No effect"}, {"measurement": "NSA-16 analyses", "setting": "[5]; nonsmoking subjects and subjects with predominant negative symptoms", "value": "did not reveal statistical significance"}, {"measurement": "Primary reason for discontinuation: Adverse event", "setting": "[6]; 10 mg QD", "value": "4 (5.8) n (%)"}, {"measurement": "Primary reason for discontinuation: Adverse event", "setting": "[6]; 25 mg QD", "value": "3 (4.5) n (%)"}, {"measurement": "Primary reason for discontinuation: Adverse event", "setting": "[6]; Compound A overall", "value": "7 (5.1) n (%)"}, {"measurement": "tolerability in subjects with schizophrenia", "setting": "[6]; doses up to 25 mg QD, including 10 mg QD and 25 mg QD", "value": "well tolerated"}]}
{"smiles": "O=C(N[C@H]1CN2CCC1CC2)c1cc2cccc(Cl)c2s1", "note": "[EVP-6124, N-[(3R)-1-azabicyclo[2.2.2]oct-3-yl]-7-chloro-1-benzothiophene-2-carboxamide]", "values": [{"measurement": "effect on the CogState test battery", "setting": "[7]", "value": "improvements"}]}
{"smiles": "COc1ccc(/C=C2\\CCCN=C2c2cccnc2)c(OC)c1", "note": "[GTS-21]", "values": [{"measurement": "effect on the Repeatable Battery for the Assessment of Neuropsychological Status total scale", "setting": "[8]", "value": "positive effects"}]}
{"smiles": "CN1CCCC1c1cccnc1", "note": "(stereo not shown) [Nicotine, nicotine]", "values": [{"measurement": "neuropsychological performance", "setting": "[9]", "value": "improved"}]}
